Test results published in patent US20190328845A1, “IN VIVO SYNTHESIS OF ELASTIC FIBER” (ALLERGAN PHARMACEUTICALS INTERNATIONAL LIMITED, priority 2011, published 2019).

Legend:
Dermal human fibroblasts = assay: Elastic fiber formation in the presence of lysyl oxidase inhibitor; format: cell-based; conditions: BAPN added at various time points relative to tropoelastin addition; 72 hours culture
Protocol: The effect of the lysyl oxidase inhibitor BAPN on elastic fiber formation in this system was studied.
Dermal human fibroblasts were grown for 12 days prior to tropoelastin addition as described. Cells were cultured for a further 72 hours after tropoelastin addition. BAPN was added at various time points relative to tropoelastin addition. Samples were stained for elastin and nuclei as described above.

human skin fibroblasts = assay: In vitro assay system for elastic fiber synthesis, human skin fibroblasts; format: cell-based; conditions: 7 days
Protocol: Cells were cultured in Dulbecco's Modified Eagle Medium High Glucose (DMEM; Invitrogen) containing 10% fetal bovine serum (FBS; Invitrogen) and 1% (v/v) penicillin/streptomycin (Invitrogen). Media were changed every 2-3 days. Cells were incubated at 37° C. and 5% CO2. To assess the capacity of cells to form elastin fibers 1×10^5 cells were seeded onto glass coverslips in 12 well culture plates. Ten to 17 days post-seeding full-length tropoelastin (Elastagen), or an alternative elastin-derived protein, in PBS was filter-sterilized and added to the cell cultures. Alternative elastin-derived proteins included human skin elastin peptides (Elastin Products Company; HSP72), a C-terminal tropoelastin deletion construct ARKRK (Weiss lab) and a C-terminal tropoelastin substitution construct containing RGDS (Weiss lab). Fiber formation was also assessed in the presence of 50 μM blebbistatin (Sigma). For experiments assessing the effect of repeated tropoelastin additions the protein was added 10, 17 and 24 days post-seeding. Cell matrix thickness was determined by averaging the number of 0.41 μm z slices required to image from the uppermost nuclei to the bottom of the sample in ten randomly chosen fields of view.
At set time points after tropoelastin addition, cells were fixed with either 3% (w/v) formaldehyde or 4% (w/v) paraformaldehyde for 20 min and quenched with 0.2 M glycine. […]

N#CCCN [BAPN]
elastic fiber formation in the presence of BAPN (Dermal human fibroblasts): prevents fiber formation

Cc1ccc2c(c1)C(=O)C1(O)CCN(c3ccccc3)C1=N2 (stereo not drawn) [blebbistatin]
elastin fiber formation in the presence of blebbistatin (human skin fibroblasts; 50 μM blebbistatin added at the same time as 125 μg/ml tropoelastin, neonatal fibroblasts): substantially impaired

+RGDS
elastin network formation (human skin fibroblasts; 125 μg/ml protein added to primary human neonatal skin fibroblasts (NHF8909) 12 days post-seeding): Spherule rather than fiber deposition
